# Assay results published in PMC10177262, “A Novel CD206 Targeting Peptide Inhibits Bleomycin-Induced Pulmonary Fibrosis in Mice” (Cells, 2023).
# Test system: BLM-induced lung fibrosis in C57BL/6J mice
# Test: Late BLM model, comparison and combination with Pirfenidone
# Type: in vivo, mouse
# Conditions: RP-832c 10 mg/kg QD; Pirfenidone 30 mg/kg Q3D; monotherapy, 21 days; n = 6
# Protocol: C57BL/6J mice were obtained from Envigo, Indianapolis, IN, USA. All animal studies were approved by the IACUC (Murigenics, Inc., Vallejo, CA, USA). After 3 days of acclimation, the mice were challenged with a single 2.5 U/kg body weight dose of bleomycin (BLM) intratracheally (IT), and a vehicle (normal saline) or RP-832c(QD) was administered subcutaneously for 21 days starting 3- and 14-days post-BLM-challenge. Body weights were measured daily, and lung weight was measured at the end of each study.
# At the end of the study, the mice were sacrificed using CO2 followed by cervical dislocation (according to IACUC guidelines), and the lungs were collected and fixed in 10% formalin. After 48 h of fixation, the lungs were processed into tissue sections. […] All slides were scanned using a Leica Aperio SC2 scanner and blindly evaluated by two independent pathologists. A total of 10 representative fields of 20× IHC images per tissue section were individually analyzed for the total number of cells/area using a confocal microscope (Olympus, New York, NY, USA). All quantitative data were normalized to appropriate control images.
# Pirfenidone and Nintedanib are the only two FDA-approved drugs for lung fibrosis; therefore, we tested any synergistic effects of RP-832c peptide with these drugs. […] Combination therapy was also evaluated (Figure 5A and Figure S5). […]
smiles,measurement,value
Cc1ccc(=O)n(-c2ccccc2)c1 [Pirfenidone],CD206 expression in lung (IHC),decreased CD206 expression
